Reference: patent publication US20230085307A1, “PYRIDAZINONE COMPOUND AND HERBICIDE” (NISSAN CHEMICAL CORPORATION, priority 2019, published 2023)

Experiments:
[1] = test system: barnyard grass; assay: Test Example 5: herbicidal effect by foliage application, plastic box (Table 20, symbol H); assay type: in vivo, barnyard grass (Echinochloa crus-galli); details: evaluated three weeks after application
Method in brief: (§1)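 Foliar spray test: emulsion formulation diluted in water to a set application rate, sprayed onto 14-day-old plants raised in diluvial soil at 25° C to 30° C under glass. Both herbicidal effect and crop effect rated visually three weeks later.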

[2] = test system: southern crabgrass; assay: Test Example 4: herbicidal effect by soil treatment (Table 19, symbol F); assay type: in vivo, southern crabgrass (Digitaria ciliaris); details: amount of applied herbicide 320 g/ha
Method in brief: (§2)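 Step 1: sow seeds in sterilized diluvial soil, cover ~1.5 cm. Step 2: spray diluted emulsion onto soil surface at predetermined rate. Step 3: greenhouse, 25–30° C, three weeks. Step 4: grade effect on each plant by earlier criteria.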

[3] = test system: blackgrass; assay: Test Example 5: herbicidal effect by foliage application, plastic box (Table 20, symbol J); assay type: in vivo, blackgrass (Alopecurus myosuroides); details: evaluated three weeks after application
Method in brief: as §1

[4] = test system: late watergrass; assay: Test Example 1: herbicidal activity, application before weed generation under submerged conditions (Table 16, symbol A); assay type: in vivo, late watergrass (Echinochloa oryzicola); details: 320 g/ha applied herbicide
Method in brief: (§3)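 Alluvial soil was flooded to 4 cm depth, weed seeds were sown mixed and 2.5-leaf rice seedlings were transplanted. On sowing day, the compound's emulsion, diluted in water to a set dose, was applied to the water surface. Plants grew at 25–30 °C and were scored 0–5 after three weeks.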

[5] = test system: windgrass; assay: Test Example 5: herbicidal effect by foliage application, plastic box (Table 20, symbol L); assay type: in vivo, windgrass (Apera spica-venti); details: evaluated three weeks after application
Method in brief: as §1

[6] = test system: Italian ryegrass; assay: Test Example 5: herbicidal effect by foliage application, plastic box (Table 20, symbol K); assay type: in vivo, Italian ryegrass (Lolium multiflorum); details: evaluated three weeks after application
Method in brief: as §1

[7] = test system: barnyard grass; assay: Test Example 4: herbicidal effect by soil treatment (Table 19, symbol H); assay type: in vivo, barnyard grass (Echinochloa crus-galli); details: amount of applied herbicide 320 g/ha
Method in brief: as §2

[8] = test system: southern crabgrass; assay: Test Example 5: herbicidal effect by foliage application, plastic box (Table 20, symbol F); assay type: in vivo, southern crabgrass (Digitaria ciliaris); details: evaluated three weeks after application
Method in brief: as §1

[9] = test system: redroot pigweed; assay: Test Example 5: herbicidal effect by foliage application, plastic box (Table 20, symbol N); assay type: in vivo, redroot pigweed (Amaranthus retroflexus); details: evaluated three weeks after application
Method in brief: as §1

[10] = test system: persian speedwell; assay: Test Example 5: herbicidal effect by foliage application, plastic box (Table 20, symbol R); assay type: in vivo, Persian speedwell (Veronica persica); details: evaluated three weeks after application
Method in brief: as §1

[11] = test system: Italian ryegrass; assay: Test Example 4: herbicidal effect by soil treatment (Table 19, symbol K); assay type: in vivo, Italian ryegrass (Lolium multiflorum); details: amount of applied herbicide 320 g/ha
Method in brief: as §2

[12] = test system: false cleavers; assay: Test Example 4: herbicidal effect by soil treatment (Table 19, symbol Q); assay type: in vivo, false cleavers (Galium spurium); details: amount of applied herbicide 320 g/ha
Method in brief: as §2

[13] = test system: Chinese sprangletop; assay: Test Example 3: herbicidal effect by foliage application, Wagner pot (Table 18, symbol D); assay type: in vivo, chinese sprangletop (Leptochloa chinensis)
Method in brief: (§4)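 Plants were sown in alluvial soil held under 0.1–0.5 cm standing water and grown 14 days in a greenhouse at 25–30 °C. An emulsifiable formulation, water-diluted to the set dose, was then sprayed onto the foliage, and effects were scored three weeks later using previously defined criteria.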

[14] = test system: windgrass; assay: Test Example 4: herbicidal effect by soil treatment (Table 19, symbol L); assay type: in vivo, windgrass (Apera spica-venti); details: amount of applied herbicide 320 g/ha
Method in brief: as §2

[15] = test system: green foxtail; assay: Test Example 5: herbicidal effect by foliage application, plastic box (Table 20, symbol G); assay type: in vivo, green foxtail (Setaria viridis); details: evaluated three weeks after application
Method in brief: as §1

[16] = test system: redroot pigweed; assay: Test Example 4: herbicidal effect by soil treatment (Table 19, symbol N); assay type: in vivo, redroot pigweed (Amaranthus retroflexus); details: amount of applied herbicide 320 g/ha
Method in brief: as §2

[17] = test system: lambsquarters; assay: Test Example 4: herbicidal effect by soil treatment (Table 19, symbol O); assay type: in vivo, lambsquarters (Chenopodium album); details: amount of applied herbicide 320 g/ha
Method in brief: as §2

[18] = test system: velvetleaf; assay: Test Example 5: herbicidal effect by foliage application, plastic box (Table 20, symbol M); assay type: in vivo, velvetleaf (Abutilon theophrasti); details: evaluated three weeks after application
Method in brief: as §1

[19] = test system: lambsquarters; assay: Test Example 5: herbicidal effect by foliage application, plastic box (Table 20, symbol O); assay type: in vivo, lambsquarters (Chenopodium album); details: evaluated three weeks after application
Method in brief: as §1

[20] = test system: oval-leafed pondweed; assay: Test Example 1: herbicidal activity, application before weed generation under submerged conditions (Table 16, symbol C); assay type: in vivo, oval-leafed pondweed (Monochoria vaginalis); details: 320 g/ha applied herbicide
Method in brief: as §3

[21] = test system: wild oat; assay: Test Example 4: herbicidal effect by soil treatment (Table 19, symbol I); assay type: in vivo, wild oat (Avena fatua); details: amount of applied herbicide 320 g/ha
Method in brief: as §2

[22] = test system: chickweed; assay: Test Example 5: herbicidal effect by foliage application, plastic box (Table 20, symbol P); assay type: in vivo, common chickweed (Stellaria media); details: evaluated three weeks after application
Method in brief: as §1

[23] = test system: velvetleaf; assay: Test Example 4: herbicidal effect by soil treatment (Table 19, symbol M); assay type: in vivo, velvetleaf (Abutilon theophrasti); details: amount of applied herbicide 320 g/ha
Method in brief: as §2

[24] = test system: barnyard grass; assay: Test Example 3: herbicidal effect by foliage application, Wagner pot (Table 18, symbol H); assay type: in vivo, barnyard grass (Echinochloa crus-galli)
Method in brief: as §4

[25] = test system: rice flat sedge; assay: Test Example 3: herbicidal effect by foliage application, Wagner pot (Table 18, symbol E); assay type: in vivo, rice flat sedge (Cyperus iria)
Method in brief: as §4

[26] = test system: wild oat; assay: Test Example 5: herbicidal effect by foliage application, plastic box (Table 20, symbol I); assay type: in vivo, wild oat (Avena fatua); details: evaluated three weeks after application
Method in brief: as §1

[27] = test system: Japanese bulrush; assay: Test Example 1: herbicidal activity, application before weed generation under submerged conditions (Table 16, symbol B); assay type: in vivo, Japanese bulrush (Schoenoplectus juncoides); details: 320 g/ha applied herbicide
Method in brief: as §3

[28] = test system: green foxtail; assay: Test Example 4: herbicidal effect by soil treatment (Table 19, symbol G); assay type: in vivo, green foxtail (Setaria viridis); details: amount of applied herbicide 320 g/ha
Method in brief: as §2

[29] = test system: persian speedwell; assay: Test Example 4: herbicidal effect by soil treatment (Table 19, symbol R); assay type: in vivo, Persian speedwell (Veronica persica); details: amount of applied herbicide 320 g/ha
Method in brief: as §2

[30] = test system: blackgrass; assay: Test Example 4: herbicidal effect by soil treatment (Table 19, symbol J); assay type: in vivo, blackgrass (Alopecurus myosuroides); details: amount of applied herbicide 320 g/ha
Method in brief: as §2

[31] = test system: chickweed; assay: Test Example 4: herbicidal effect by soil treatment (Table 19, symbol P); assay type: in vivo, common chickweed (Stellaria media); details: amount of applied herbicide 320 g/ha
Method in brief: as §2

[32] = foliage application, AAH 320 g/ha
[33] = amount of applied herbicide 320 g/ha
[34] = 320 g/ha, foliage application after 14-day growth

Cc1nn(C)c(=O)c(-c2c(-c3ccc(COCC(F)(F)F)cc3)sc3ccc(F)cc23)c1O [2-315]
H: barnyard grass, herbicidal effect (criteria 0-5) [1, 32]: 5 (Herbicidal rate of 90% or more (almost completely withered))
herbicidal effect on F: southern crabgrass [2]: 2 (Herbicidal rate of 20% or more and less than 40%)
J: blackgrass, herbicidal effect (criteria 0-5) [3, 32]: 5 (Herbicidal rate of 90% or more (almost completely withered))
Herbicidal effect on A: late watergrass (grade 0-5) [4]: 4 (Herbicidal rate of 70% or more and less than 90%)
L: windgrass, herbicidal effect (criteria 0-5) [5, 32]: 5 (Herbicidal rate of 90% or more (almost completely withered))
K: Italian ryegrass, herbicidal effect (criteria 0-5) [6, 32]: 5 (Herbicidal rate of 90% or more (almost completely withered))
herbicidal effect on H: barnyard grass [7]: 3 (Herbicidal rate of 40% or more and less than 70%)
F: southern crabgrass, herbicidal effect (criteria 0-5) [8, 32]: 4 (Herbicidal rate of 70% or more and less than 90%)
N: redroot pigweed, herbicidal effect (criteria 0-5) [9, 32]: 5 (Herbicidal rate of 90% or more (almost completely withered))
R: persian speedwell, herbicidal effect (criteria 0-5) [10, 32]: 5 (Herbicidal rate of 90% or more (almost completely withered))
herbicidal effect on K: Italian ryegrass [11]: 4 (Herbicidal rate of 70% or more and less than 90%)
herbicidal effect on Q: false cleavers [12]: 5 (Herbicidal rate of 90% or more (almost completely withered))
herbicidal effect on D: Chinese sprangletop [13, 33]: 3 (Herbicidal rate of 40% or more and less than 70%)
herbicidal effect on L: windgrass [14]: 0 (Herbicidal rate of 5% or less (almost no effect))
G: green foxtail, herbicidal effect (criteria 0-5) [15, 32]: 5 (Herbicidal rate of 90% or more (almost completely withered))
herbicidal effect on N: redroot pigweed [16]: 5 (Herbicidal rate of 90% or more (almost completely withered))
herbicidal effect on O: lambsquarters [17]: 5 (Herbicidal rate of 90% or more (almost completely withered))
M: velvetleaf, herbicidal effect (criteria 0-5) [18, 32]: 5 (Herbicidal rate of 90% or more (almost completely withered))
O: lambsquarters, herbicidal effect (criteria 0-5) [19, 32]: 5 (Herbicidal rate of 90% or more (almost completely withered))
Herbicidal effect on C: oval-leafed pondweed (grade 0-5) [20]: 0 (Herbicidal rate of 5% or less (almost no effect))
herbicidal effect on I: wild oat [21]: 0 (Herbicidal rate of 5% or less (almost no effect))
P: chickweed, herbicidal effect (criteria 0-5) [22, 32]: 5 (Herbicidal rate of 90% or more (almost completely withered))
herbicidal effect on M: velvetleaf [23]: 4 (Herbicidal rate of 70% or more and less than 90%)
herbicidal effect on H: barnyard grass [24, 33]: 5 (Herbicidal rate of 90% or more (almost completely withered))
herbicidal effect on E: rice flat sedge [25, 33]: 5 (Herbicidal rate of 90% or more (almost completely withered))
I: wild oat, herbicidal effect (criteria 0-5) [26, 32]: 0 (Herbicidal rate of 5% or less (almost no effect))
Herbicidal effect on B: Japanese bulrush (grade 0-5) [27]: 0 (Herbicidal rate of 5% or less (almost no effect))
herbicidal effect on G: green foxtail [28]: 3 (Herbicidal rate of 40% or more and less than 70%)

Cc1nn(C)c(=O)c(-c2c(-c3ccc(C#N)cc3)sc3c(F)cccc23)c1O [4-052]
herbicidal effect on H: barnyard grass (evaluation grade 0-5) [1, 34]: 5 (Herbicidal rate of 90% or more (almost completely withered))
Herbicidal effect by soil treatment, F: southern crabgrass [2]: 0 (Herbicidal rate of 5% or less (almost no effect))
herbicidal effect on J: blackgrass (evaluation grade 0-5) [3, 34]: 0 (Herbicidal rate of 5% or less (almost no effect))
herbicidal effect on L: windgrass (evaluation grade 0-5) [5, 34]: 0 (Herbicidal rate of 5% or less (almost no effect))
herbicidal effect on K: Italian ryegrass (evaluation grade 0-5) [6, 34]: 3 (Herbicidal rate of 40% or more and less than 70%)
Herbicidal effect by soil treatment, H: barnyard grass [7]: 0 (Herbicidal rate of 5% or less (almost no effect))
herbicidal effect on F: southern crabgrass (evaluation grade 0-5) [8, 34]: 0 (Herbicidal rate of 5% or less (almost no effect))
herbicidal effect on N: redroot pigweed (evaluation grade 0-5) [9, 34]: 5 (Herbicidal rate of 90% or more (almost completely withered))
herbicidal effect on R: persian speedwell (evaluation grade 0-5) [10, 34]: 5 (Herbicidal rate of 90% or more (almost completely withered))
Herbicidal effect by soil treatment, K: Italian ryegrass [11]: 0 (Herbicidal rate of 5% or less (almost no effect))
Herbicidal effect by soil treatment, Q: false cleavers [12]: 0 (Herbicidal rate of 5% or less (almost no effect))
herbicidal effect on Chinese sprangletop (D) ([13]; 320 g/ha): 3 (Herbicidal rate of 40% or more and less than 70%)
Herbicidal effect by soil treatment, L: windgrass [14]: 0 (Herbicidal rate of 5% or less (almost no effect))
herbicidal effect on G: green foxtail (evaluation grade 0-5) [15, 34]: 5 (Herbicidal rate of 90% or more (almost completely withered))
Herbicidal effect by soil treatment, R: persian speedwell [29]: 4 (Herbicidal rate of 70% or more and less than 90%)
Herbicidal effect by soil treatment, N: redroot pigweed [16]: 4 (Herbicidal rate of 70% or more and less than 90%)
Herbicidal effect by soil treatment, O: lambsquarters [17]: 2 (Herbicidal rate of 20% or more and less than 40%)
herbicidal effect on M: velvetleaf (evaluation grade 0-5) [18, 34]: 5 (Herbicidal rate of 90% or more (almost completely withered))
herbicidal effect on O: lambsquarters (evaluation grade 0-5) [19, 34]: 4 (Herbicidal rate of 70% or more and less than 90%)
Herbicidal effect by soil treatment, I: wild oat [21]: 0 (Herbicidal rate of 5% or less (almost no effect))
Herbicidal effect by soil treatment, J: blackgrass [30]: 0 (Herbicidal rate of 5% or less (almost no effect))
herbicidal effect on P: chickweed (evaluation grade 0-5) [22, 34]: 5 (Herbicidal rate of 90% or more (almost completely withered))
Herbicidal effect by soil treatment, P: chickweed [31]: 3 (Herbicidal rate of 40% or more and less than 70%)
Herbicidal effect by soil treatment, M: velvetleaf [23]: 1 (Herbicidal rate of 5% or more and less than 20%)
herbicidal effect on barnyard grass (H) ([24]; 320 g/ha): 5 (Herbicidal rate of 90% or more (almost completely withered))
herbicidal effect on rice flat sedge (E) ([25]; 320 g/ha): 4 (Herbicidal rate of 70% or more and less than 90%)
herbicidal effect on I: wild oat (evaluation grade 0-5) [26, 34]: 0 (Herbicidal rate of 5% or less (almost no effect))
Herbicidal effect by soil treatment, G: green foxtail [28]: 0 (Herbicidal rate of 5% or less (almost no effect))
